The target of test [1] is hNurr1_RXRγFL (NURR1/RXRγ heterodimer) (Homo sapiens, UniProt P43354+P48443). In words: Transactivation assay in Cos-7 cells, NURR-1-Gal4 / RXRγ, luciferase reporter. It is filed as cell-based. The conditions noted are these: for Emax: COS-7, read-out: hNurr1_RXRγFL Eff (%), efficacy in % relative to the reference XCT0135908 at 2·10^−5 M (=100%); for EC50: Cos-7 cells, overnight incubation. How it is done:
(§1) First, the capacity of the compounds according to the invention for acting as an activator of the heterodimers formed by the NURR-1 nuclear receptor and the RXR nuclear receptors was measured by an in vitro assay.
(§2) A transactivation assay was used as a primary screening assay. Cos-7 cells were co-transfected with a plasmid expressing a chimera of the human receptor NURR-1-Gal4, a plasmid expressing the human receptor RXR (RXRα or RXRγ receptor) and a reporter plasmid 5Gal4pGL3-TK-Luc. The transfections were performed by means of a chemical agent (Jet PEI).
(§3) The transfected cells were distributed in 384-well plates and left resting for 24 hours.
(§4) After 24 hours, the culture medium was changed. The products according to the invention were added (final concentration between 10^−4 and 3·10^−10 M) to the culture medium. After overnight incubation, luciferase expression was measured after addition of “SteadyGlo” according to the manufacturer's instructions (Promega).
(§5) 4-[[6-Methyl-2-phenyl-5-(2-prop enyl)-4-pyrimidinyl]amino]-benzoic acid (called XCT0135908, which was described in the article by Wallen-Mackenzie et al. published in Genes & Development 17, pages 3036-3047) at 2·10^−5 M (RXR agonist) was used as reference.
(§6) The levels of induction (designated by “efficiency”) were calculated relative to the baseline activity of each heterodimer. The results were expressed as a percentage of the level of induction relative to the level of induction obtained with the reference (the level of induction of the reference is arbitrarily taken to be 100%).
Background: A reporter such as luciferase makes a cellular process visible.

Test [2] concerns the target hNurr1_RXRαFL (NURR1/RXRα heterodimer) (Homo sapiens, UniProt P19793+P43354). In words: Transactivation assay in Cos-7 cells, NURR-1-Gal4 / RXRα, luciferase reporter. It is filed as cell-based. The conditions noted are these: for Emax: COS-7, read-out: hNurr1_RXRαFL Eff (%), efficacy in % relative to the reference XCT0135908 at 2·10^−5 M (=100%); for EC50: Cos-7 cells, overnight incubation; for hNurr1_RXRαFL Eff (%): efficacy in % relative to the reference XCT0135908 at 2·10^−5 M (=100%). How it is done:
as §1, §2, §3, §4, §5, §6

The term EC50 denotes the midpoint of the concentration-response curve. A lower EC50 goes with higher potency in that assay.

Sequence of hNurr1_RXRγFL (NURR1/RXRγ heterodimer) (P43354 328-598): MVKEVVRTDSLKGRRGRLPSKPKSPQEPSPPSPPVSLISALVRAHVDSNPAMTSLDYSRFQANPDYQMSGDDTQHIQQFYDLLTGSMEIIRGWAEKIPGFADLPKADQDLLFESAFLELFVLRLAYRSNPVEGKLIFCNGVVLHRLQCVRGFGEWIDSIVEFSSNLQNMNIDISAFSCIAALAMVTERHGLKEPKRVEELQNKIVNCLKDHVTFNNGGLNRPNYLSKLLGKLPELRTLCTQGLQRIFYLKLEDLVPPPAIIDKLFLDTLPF
Sequence of hNurr1_RXRγFL (NURR1/RXRγ heterodimer) (P48443 whole entry, the tested form may be a part): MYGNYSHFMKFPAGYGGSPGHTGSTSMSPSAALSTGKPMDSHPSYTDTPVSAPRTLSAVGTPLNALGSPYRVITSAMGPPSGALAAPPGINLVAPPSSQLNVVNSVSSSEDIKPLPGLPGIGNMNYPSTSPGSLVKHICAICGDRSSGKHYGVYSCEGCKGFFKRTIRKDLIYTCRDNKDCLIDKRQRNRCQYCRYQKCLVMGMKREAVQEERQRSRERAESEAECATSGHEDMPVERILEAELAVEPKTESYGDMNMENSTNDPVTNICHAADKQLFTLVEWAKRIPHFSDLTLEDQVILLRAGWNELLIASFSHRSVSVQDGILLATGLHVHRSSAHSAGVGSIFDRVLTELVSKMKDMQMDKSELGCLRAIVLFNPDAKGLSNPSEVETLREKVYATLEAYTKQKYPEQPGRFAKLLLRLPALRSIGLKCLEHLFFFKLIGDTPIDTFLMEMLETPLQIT
Sequence of hNurr1_RXRαFL (NURR1/RXRα heterodimer) (P19793 whole entry, the tested form may be a part): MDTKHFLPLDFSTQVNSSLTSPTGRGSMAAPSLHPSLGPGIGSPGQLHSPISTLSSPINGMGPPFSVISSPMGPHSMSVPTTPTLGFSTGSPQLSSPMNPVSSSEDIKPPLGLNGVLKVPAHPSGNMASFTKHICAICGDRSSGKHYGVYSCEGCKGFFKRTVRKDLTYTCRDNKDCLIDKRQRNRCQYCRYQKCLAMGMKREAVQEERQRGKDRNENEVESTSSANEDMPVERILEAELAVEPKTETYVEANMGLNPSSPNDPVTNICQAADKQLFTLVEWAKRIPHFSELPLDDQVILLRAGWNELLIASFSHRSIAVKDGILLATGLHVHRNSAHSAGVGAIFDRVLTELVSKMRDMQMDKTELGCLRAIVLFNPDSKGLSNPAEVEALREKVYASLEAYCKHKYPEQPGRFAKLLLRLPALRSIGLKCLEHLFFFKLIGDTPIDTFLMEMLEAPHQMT
Sequence of hNurr1_RXRαFL (NURR1/RXRα heterodimer) (P43354 328-598): as the sequence (P43354 328-598) above

Take `COC(=O)c1ccc(Cc2cc3cc(C(F)(F)F)ccc3n2S(=O)(=O)c2ccc(C(C)C)cc2)cc1F` [Example 1, 2-fluoro-4-[[1-[[4-(1-methylethyl)phenyl]sulfonyl]-5-(trifluoromethyl)-1H-indol-2-yl]methyl]benzoic acid, methyl ester]: in test [1], the Emax came out at 60% and a half-maximal response (EC50) required 718 nM. In test [2], the Emax amounted to 65% and the EC50 was determined as 412 nM.
In the same order, the values of `CC(C)(C)c1cccc(S(=O)(=O)n2c(Cc3cccc(C(=O)O)c3)cc3cc(C(F)(F)F)ccc32)c1` [Example 8, 3-[[1-[[3-(1,1-dimethylethyl)phenyl]sulfonyl]-5-(trifluoromethyl)-1H-indol-2-yl]methyl]benzoic acid] are 74%, 99 nM, 96% and 101 nM.
In the same order, the values of `CC(C)(C)c1cccc(S(=O)(=O)n2c(Cc3ccc(C(=O)O)c(F)c3)cc3cc(C(F)(F)F)ccc32)c1` [Example 10, 2-fluoro-4-[[1-[[3-(1,1-dimethylethyl)phenyl]sulfonyl]-5-(trifluoromethyl)-1H-indol-2-yl]methyl]benzoic acid] are 56%, 943 nM, 63% and 406 nM.
Take `CC(C)c1ccc(S(=O)(=O)n2c(Cc3csc(C(=O)O)c3)cc3cc(C(F)(F)F)ccc32)cc1` [Example 72, 4-[[1-[[4-(1-methylethyl)-phenyl]sulfonyl]-5-trifluoromethyl-1H-indol-2-yl]methyl]-thiophene-2-carboxylic acid]: in test [2], the Emax stood at 131% and the EC50 turned out to be 72 nM.
For `CN1CCOc2ccc(S(=O)(=O)n3c(Cc4csc(C(=O)O)c4)cc4cc(C(F)(F)F)ccc43)cc21` [Example 74, 4-[[1-[(4-methyl-3,4-dihydro-2H-benzo[1,4]oxazin-6-yl)-sulfonyl]-5-trifluoromethyl-1H-indol-2-yl]methyl]-thiophene-2-carboxylic acid], in that order: 150% and 40 nM.
For `CN1CCOc2ccc(S(=O)(=O)n3c(Cc4ccc(C(=O)O)o4)cc4cc(C(F)(F)F)ccc43)cc21` [Example 75, 5-[[1-[(4-methyl-3,4-dihydro-2H-benzo[1,4]oxazin-6-yl)-sulfonyl]-5-trifluoromethyl-1H-indol-2-yl]methyl]-furan-2-carboxylic acid], in that order: 114% and 66 nM.
In the same order, the values of `CN1CCOc2ccc(S(=O)(=O)n3c(Cc4cc(C(=O)O)co4)cc4cc(C(F)(F)F)ccc43)cc21` [Example 76, 5-[[1-[[4-methyl-3,4-dihydro-2H-benzo[1,4]oxazin-6-yl)-sulfonyl]-5-trifluoromethyl-1H-indol-2-yl]methyl]-furan-3-carboxylic acid] are 138% and 63 nM.
Turning to `O=C(O)c1cc(Cc2cc3cc(Cl)ccc3n2S(=O)(=O)c2ccc3c(c2)OCCO3)cs1` [Example 78], in test [2], the Emax was found to be 116% and the EC50 came to 331 nM.
In the same order, the values of `O=C(O)c1ccc(Cc2cc3cc(Cl)ccc3n2S(=O)(=O)c2ccc3c(c2)OCCO3)o1` [Example 79, 5-[[5-chloro-1-[(2,3-dihydro-benzo[1,4]dioxin-6-yl)sulfonyl]-1H-indol-2-yl]methyl]-furan-2-carboxylic acid] are 147% and 724 nM.
For `Cn1cc(Cc2cc3cc(C(F)(F)F)ccc3n2S(=O)(=O)c2cccc(C(C)(C)C)c2)cc1C(=O)O` [Example 87, 4-[[1-[[3-(1,1-dimethylethyl)-phenyl]sulfonyl]-5-trifluoromethyl-1H-indol-2-yl]methyl]-1-methyl-pyrrol-2-yl-carboxylic acid], in that order: 123% and 30 nM.
In the case of `CC(C)(C)c1cccc(S(=O)(=O)n2c(C(O)c3ccc(C(=O)O)s3)cc3cc(C(F)(F)F)ccc32)c1` (centres unmarked) [Example 91, 5-[[1-[[3-(1,1-dimethylethyl)-phenyl]sulfonyl]-5-trifluoromethyl-1H-indol-2-yl]hydroxymethyl]-thiophene-2-carboxylic acid], in test [2], the Emax stood at 100% and it took 72 nM to reach a half-maximal effect (EC50).
In the same order, the values of `CC(C)(C)c1cccc(S(=O)(=O)n2c(C(=O)c3ccc(C(=O)O)s3)cc3cc(C(F)(F)F)ccc32)c1` [Example 94, 5-[[1-[[3-(1,1-dimethylethyl)-phenyl]sulfonyl]-5-trifluoromethyl-1H-indol-2-yl]-carbonyl]-thiophene-2-carboxylic acid] are 106% and 1240 nM.
On to `CC(C)(C)c1cccc(S(=O)(=O)n2c(C(C)(O)c3ccc(C(=O)O)s3)cc3cc(C(F)(F)F)ccc32)c1` (centres unmarked) [Example 95, 5-[1-[1-[[3-(1,1-dimethylethyl)-phenyl]sulfonyl]-5-(trifluoromethyl)-1H-indol-2-yl]-1-hydroxyethyl]-thiophene-2-carboxylic acid], for which, in test [2], the Emax turned out to be 99% and the EC50 was 209 nM.
For `C=C(c1ccc(C(=O)O)s1)c1cc2cc(C(F)(F)F)ccc2n1S(=O)(=O)c1cccc(C(C)(C)C)c1` [Example 96, 5-[1-[1-[[3-(1,1-dimethylethyl)-phenyl]sulfonyl]-5-(trifluoromethyl)-1H-indol-2-yl]-1-ethenyl]-thiophene-2-carboxylic acid], in that order: 54% and 339 nM.
In the same order, the values of `O=C(O)c1ccc(Cc2cc3cc(C(F)(F)F)ccc3n2S(=O)(=O)c2ccc(C(=O)N3CCOCC3)cc2)cc1` [Example 129, 4-[[1-[4-(morpholine-4-carbonyl)benzenesulfonyl]-5-(trifluoromethyl)-1H-indol-2-yl]methyl]benzoic acid] are 41% and 804 nM.
For `CC(C)(C)c1cccc(S(=O)(=O)n2c(Cc3cc(C(=O)O)ccc3F)cc3cc(C(F)(F)F)ccc32)c1` [Example 199, 3-[[1-[[3-(1,1-dimethylethyl)-phenyl]sulfonyl]-5-trifluoromethyl-1H-indol-2-yl]methyl]-4-fluorobenzoic acid], in that order: 118% and 22 nM.
`CC(C)(C)c1cccc(S(=O)(=O)n2c(Cc3cc(F)cc(C(=O)O)c3)cc3cc(C(F)(F)F)ccc32)c1` [Example 200, 3-[[1-[[3-(1,1-dimethylethyl)-phenyl]sulfonyl]-5-trifluoromethyl-1H-indol-2-yl]methyl]-5-fluorobenzoic acid]: the Emax in test [2] came to 93%.
For the compound `CC(C)(C)c1cccc(S(=O)(=O)n2c(Cc3cc(F)cc(C(=O)O)c3)cc3cc(C(F)(F)F)ccc32)c1` [Example 201, 3-[[1-[[3-(1,1-dimethylethyl)-phenyl]sulfonyl]-5-trifluoromethyl-1H-indol-2-yl]methyl]-5-fluorobenzoic acid], in test [2], the “hNurr1_RXRαFL Eff (%)” value came out at 96%.
Regarding `COc1ccc(Cc2cc3cc(C(F)(F)F)ccc3n2S(=O)(=O)c2cccc(C(C)(C)C)c2)cc1C(=O)O` [Example 202, 3-[[1-[[3-(1,1-dimethylethyl)-phenyl]sulfonyl]-5-trifluoromethyl-1H-indol-2-yl]methyl]-6-methoxybenzoic acid], in test [2], the Emax came to 104% and a half-maximal effect (EC50) was put at 19 nM.
Regarding `CC(C)(C)c1cccc(S(=O)(=O)n2c(Cc3cc(C(=O)O)c(F)cc3Cl)cc3cc(C(F)(F)F)ccc32)c1` [Example 203, 3-[[1-[[3-(1,1-dimethylethyl)-phenyl]sulfonyl]-5-trifluoromethyl-M-indol-2-yl]methyl]-4-chloro-6-fluorobenzoic acid], in test [2], the EC50 amounted to 85 nM and the “hNurr1_RXRαFL Eff (%)” value came to 83%.
As to `CC(C)(C)c1cccc(S(=O)(=O)n2c(Cc3ccc(C(=O)O)cc3Cl)cc3cc(C(F)(F)F)ccc32)c1` [Example 205, 4-[[1-[[3-(1,1-dimethylethyl)-phenyl]sulfonyl]-5-trifluoromethyl-1H-indol-2-yl]methyl]-3-chlorobenzoic acid], in test [2], the Emax was 75% and the concentration for a half-maximal effect (EC50) came out at 98 nM.
For `COc1c(Cc2cc3cc(C(F)(F)F)ccc3n2S(=O)(=O)c2cccc(C(C)(C)C)c2)cccc1C(=O)O` [Example 207, 3-[[1-[[3-(1,1-dimethylethyl)-phenyl]sulfonyl]-5-trifluoromethyl-1H-indol-2-yl]methyl]-2-methoxybenzoic acid], in that order: 48% and 513 nM.
In the same order, the values of `COc1ccc(C(=O)O)cc1Cc1cc2cc(C(F)(F)F)ccc2n1S(=O)(=O)c1cccc(C(C)(C)C)c1` [Example 208, 3-[[1-[[3-(1,1-dimethylethyl)-phenyl]sulfonyl]-5-trifluoromethyl-1H-indol-2-yl]methyl]-4-methoxybenzoic acid] are 31% and 240 nM.

The values above are taken from US20120232070A1, “Use of Indole Derivatives as Nurr-1 Activators for the Application Thereof as a Medicament for the Treatment of Parkinson's Disease” (Laboratoires Fournier SA, priority 2009, published 2012).
